Reference: US20030191347A1 (priority 2002, published 2003)

Test: dissolution in water
Format: physicochemical
Conditions: stated in words only, no figure

For COc1ccc(C(CN(C)C)C2(O)CCCCC2)cc1 (stereo not shown) [venlafaxine base, 1-[2-(dimethylamino)-1-(4-methoxyphenyl)ethyl]cyclohexanol], the dissolution in water was “slow”.
